# Laboratory results as given in patent US4650804A, “Quinolizinone compounds and pharmaceutical composition comprising the same, useful as anti-ulcerative and anti-allergic agents” (Fujisawa Pharmaceutical Co., Ltd., priority 1984, dated 1987).
# Where “and” joins values, the source holds several entries; their conditions need not be identical. Equal values may be shown once.
# Experiments:
# [1] = Inhibition on stress ulcer; type: in vivo, Sprague-Dawley rats; details: 32 mg/kg, oral, 22° C. water bath, 7 hours; for Ulcer index Mean ± S. E. / Ulcer index (individual animals): just before immobilization; for Ulcer index Mean ± S. E.: 5 animals; for Ulcer index (individual animals): single animals No. 1-5; for Inh. %: ulcer index inhibition vs control
# Method: (A) Inhibition on stress ulcer
# Sprague-Dawley rats weighing about 200 g were used. Each animal was immobilized in a small cage and put in a water bath allowing to respire. The temperature of the water bath kept at 22° C. The test compound .circle.A and .circle.B were administered orally just before the immobilization. Seven hours later, the animals were sacrificed and their stomachs were removed. The stomach was then fixed with 2% formalin. The area of ulcers was measured for each animal. The mean area (mm^2) in the test animals was compared with that in the control animals.
# [2] = Effect on passive cutaneous anaphylaxis (PCA); type: in vivo, female Sprague-Dawley rats; details: intravenously with the antigen
# Method: (B) Effect on passive cutaneous anaphylaxis (pCA).
# Recipient animals for PCA reactions were female Sprague-Dawley rats, 7 weeks old, 180 g-200 g (Nihon Kurea). Each experiment included 5 observations.
# Five times crystallized ovalbumin (OVA) (Sigma Lot, 31F-8061) was used as antigen.
# Female BDFl mice, 7 weeks old (Nihon Kurea), were given a primary injection (left foot pad, s.c.) of 100 mcg OVA in 0.05 ml saline and after 20 days a booster injection by the same route. Blood was collected 28 days after the primary injection and the sera were stored at -80° C.
# The animals were shared with an electric clipper in advance and prepared for Passive Cutaneous Anaphylaxis (PCA) by injecting 0.05 ml of mouse antiserum dilutions (1/16, 1/32) in each side of the dorsal skin.
# They were then challenged 48 hours later with an intravenous injection of 1 ml of 0.5% Evans Blue containing 5 mg OVA. Fifty minutes later, they were killed and the lesions (diameter) measured.
# A minimal skin response was one with a 5 mm or greater diameter blue spot measured on the dermal side of reflected skin. Drug activity was estimated using the following formula; [formula]
# Drugs were suspended in 0.1% methyl cellulose/saline and given intravenously with the antigen.
SMILES,Ulcer index Mean ± S. E. [1],Ulcer index (individual animals) [1],Inh. % [1],"Inhibition (%) ([2]; 1 mg/kg, Antiserum concentration 1/16)","Inhibition (%) ([2]; 1 mg/kg, Antiserum concentration 1/32)","Inhibition (%) ([2]; 10 mg/kg, Antiserum concentration 1/16)","Inhibition (%) ([2]; 10 mg/kg, Antiserum concentration 1/32)"
"O=C(Nc1nn[nH]n1)c1ccc2ccccn2c1=O [Compound .circle.A, N-[5-(1H-Tetrazolyl)]-4H-quinolizin-4-one-3-carboxamide]",6.2 ± 3.0 mm^2,18 mm^2 and 5 mm^2 and 3 mm^2 and 4 mm^2 and 1 mm^2,67.7%,97.2%,100%,94.5%,100%
"O=C(Nc1nn[nH]n1)c1cc(-c2ccccc2)c2ccccn2c1=O [Compound .circle.B, N-[5-(1H-Tetrazolyl)]-1-phenyl-4H-quinolizin-4-one-3-carboxamide]",8.4 ± 1.9 mm^2,10 mm^2 and 11 mm^2 and 3 mm^2 and 5 mm^2,83.7%,,,,
